Data from ChEMBL document CHEMBL3091453, “Bioactive compounds from Stuhlmannia moavi from the Madagascar dry forest” (Bioorg Med Chem, 2013).
The source made the active and inactive calls. The calls are words filed in the database; no cut-off is given here.

How the values were obtained:
[1] = test system: A2780; assay: Antiproliferative activity against human A2780 cells after 2 days by Alamar Blue assay; type: functional, cell-based; settings: for IC50: A2780, 48 h
[2] = test system: Plasmodium falciparum; assay: Antimalarial activity against chloroquine/mefloquine-resistant Plasmodium falciparum Dd2 after 72 hrs by SYBR Green I assay; type: functional; settings: Dd2, 72 h

Row | SMILES | IC50 [1] | IC50 [2] | Activity [1]
1 | COC1=CC(=O)c2c(O)c(C(C)=O)c(C)c(O)c2C1=O | 8.1 µM | 24 µM | –
2 | Oc1ccc(/C=C/c2cc(O)cc(O)c2)cc1 [RESVERATROL] | 74 µM | – | –
3 | C[C@@H]1CC[C@H]2[C@@H](C)C(=O)O[C@@H]3O[C@@]4(C)CC[C@@H]1[C@]32OO4 [ARTEMISININ] | – | 0.007 µM | –
4 | COc1cc(/C=C/c2cc(O)cc(O)c2)ccc1O | – | – | Active
5 | COc1cc(O)cc(/C=C/c2ccc(O)c(O)c2)c1 | 54 µM | 27 µM | –
6 | Oc1cc(O)cc(/C=C/c2ccc(O)c(O)c2)c1 [PICEATANNOL] | 41 µM | – | –
7 | CC(=O)O[C@H]1C(=O)[C@@]2(C)[C@H]([C@H](OC(=O)c3ccccc3)[C@]3(O)C[C@H](OC(=O)[C@H](O)[C@@H](NC(=O)c4ccccc4)c4ccccc4)C(C)=C1C3(C)C)[C@]1(OC(C)=O)CO[C@@H]1C[C@@H]2O [PACLITAXEL] | 0.024 µM | – | –
8 | COc1ccc(/C=C2\COc3cc(O)ccc3C2=O)cc1 [BONDUCELLIN] | 10.6 µM | 26 µM | –
